From paper PMC4460250, “Systems Pharmacology Dissecting Holistic Medicine for Treatment of Complex Diseases: An Example Using Cardiocerebrovascular Diseases Treated by TCM” (Evidence-based Complementary and Alternative Medicine : eCAM, 2015)
Where two headings read alike, the source gives them in different places.

Assays:
PIM1 = PIM1 (Homo sapiens, UniProt P11309); assay: PIM1 inhibition assay (ligand-binding assay, manufacturer's instructions); type: biochemical; details: Bliss method, three independent determinations, read-out: IC50 (μM): mean ± SD
PIM1, sequence (P11309 whole entry): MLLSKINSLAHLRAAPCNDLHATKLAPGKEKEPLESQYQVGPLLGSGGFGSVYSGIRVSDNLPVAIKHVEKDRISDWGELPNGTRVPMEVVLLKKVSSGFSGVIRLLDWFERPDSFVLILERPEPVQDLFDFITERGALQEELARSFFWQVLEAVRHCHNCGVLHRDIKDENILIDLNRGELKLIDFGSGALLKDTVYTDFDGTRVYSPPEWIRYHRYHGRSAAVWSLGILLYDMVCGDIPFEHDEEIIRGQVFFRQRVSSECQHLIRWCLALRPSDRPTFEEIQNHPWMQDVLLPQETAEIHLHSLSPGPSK

PTGS1 = molecular target: T1, PTGS1 (Ovis aries, UniProt P05979); assay: PTGS1 inhibition assay (ligand-binding assay, manufacturer's instructions); type: biochemical; details: Bliss method, three independent determinations, read-out: IC50 (μM): mean ± SD
T1 sequence (P05979 25-600): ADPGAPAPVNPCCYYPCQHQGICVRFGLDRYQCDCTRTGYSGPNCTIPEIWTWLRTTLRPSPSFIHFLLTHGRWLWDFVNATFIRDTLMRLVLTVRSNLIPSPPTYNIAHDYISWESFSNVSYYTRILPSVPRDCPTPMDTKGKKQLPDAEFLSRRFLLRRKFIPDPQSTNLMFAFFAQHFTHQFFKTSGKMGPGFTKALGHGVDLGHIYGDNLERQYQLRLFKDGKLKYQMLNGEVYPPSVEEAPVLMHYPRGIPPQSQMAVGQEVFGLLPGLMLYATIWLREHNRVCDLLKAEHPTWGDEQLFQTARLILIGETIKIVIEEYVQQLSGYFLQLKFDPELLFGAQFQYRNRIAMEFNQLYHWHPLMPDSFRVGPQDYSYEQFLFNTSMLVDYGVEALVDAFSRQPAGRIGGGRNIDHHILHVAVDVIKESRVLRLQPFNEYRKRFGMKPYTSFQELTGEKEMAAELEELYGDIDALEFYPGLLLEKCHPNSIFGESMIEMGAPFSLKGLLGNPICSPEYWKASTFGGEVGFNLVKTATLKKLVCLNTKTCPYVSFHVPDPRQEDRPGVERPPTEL
Description: To validate the practicability and efficiency of above methods, the inhibitory effects of drugs on predicted targets were quantified by ligand-binding assays according to the manufacturer's instructions. The drug-target interactions were selected at random and readily available on the market, respectively. […] Targets PIM1 and PTGS1 were respectively purchased from Cayman Chemical, Ann Arbor, MI, USA and CycLex, Japan. The purity of all the compounds is >98%. All drugs were dissolved in DMS and freshly prepared due to loss of activity under long-term storage. IC50 values were determined using the Bliss method with three independent determinations.

[1] = cited from earlier work
[2] = Human intestinal absorption percentage values of the PreHIA data set (732 compounds, Table S2); details: class from HIA value
[3] = human, PreHIA data set, value given as fraction

SMILES | IC50 (PIM1) [µM] | IC50 (PTGS1) [µM] | HIA(Human Intestinal Absorption) [1, 3] | Class(High: HIA value ≥0.7; Low: HIA value < 0.7) [2] | HIA(Human Intestinal Absorption) ([1]; in vivo)
O=c1c(O[C@@H]2O[C@H](CO)[C@@H](O)[C@H](O)[C@H]2O)c(-c2ccc(O)cc2)oc2cc(O)cc(O)c12 [Astragalin] | 62 ± 9.7 | – | – | – | –
O=c1c(O[C@@H]2O[C@H](CO)[C@@H](O)[C@H](O)[C@H]2O)c(-c2ccc(O)cc2)oc2cc(O)cc(O)c12 [Kaempferol-3-glucoside] | – | 74 | – | – | –
O=[N+]([O-])c1ccc(O)c2ncccc12 [Nitroxoline] | – | – | 1 | High (High: HIA value ≥0.7) | –
CCOC(=O)C1=C[C@@H](OC(CC)CC)[C@H](NC(C)=O)[C@@H](N)C1 [Oseltamivir] | – | – | 0.75 | High (High: HIA value ≥0.7) | –
O=c1[nH]c2ccccc2n1CCCN1CCN(C(c2ccccc2)c2ccccc2)CC1 [Oxatomide] | – | – | 1 | High (High: HIA value ≥0.7) | –
CC[N+]1(C)[C@@H]2CC(OC(=O)[C@H](CO)c3ccccc3)C[C@H]1[C@@H]1O[C@@H]12 (stereo partly shown) [Oxitropium] | – | – | 0.16 | Low (Low: HIA value < 0.7) | –
CC(C)NCC(O)COc1ccc(CCNC(=O)NC(C)C)cc1 (stereo not shown) [Pafenolol] | – | – | 0.29 | Low (Low: HIA value < 0.7) | –
COc1ccnc(C[S+]([O-])c2nc3ccc(OC(F)F)cc3[nH]2)c1OC (stereo not shown) [Pantoprazole] | – | – | 0.77 | High (High: HIA value ≥0.7) | –
C[N+]1(CCCCC[N+]2(C)CCCC2)CCCC1 [Pentolinium] | – | – | 0.05 | Low (Low: HIA value < 0.7) | –
CCc1[nH]c(=O)[nH]c1C(=O)c1ccncc1 [Piroximone] | – | – | 0.8 | High (High: HIA value ≥0.7) | –
CCCOC(C(=O)OC1CCN(C)CC1)(c1ccccc1)c1ccccc1 [Propiverine] | – | – | 0.84 | High (High: HIA value ≥0.7) | –
CCCc1cc(C(N)=S)ccn1 [Protionamide] | – | – | 0.9 | High (High: HIA value ≥0.7) | –
Oc1ccc(C(O)C2CCCCN2)cc1O (stereo not shown) [Rimiterol] | – | – | 0.48 | Low (Low: HIA value < 0.7) | –
O=P(O)(O)C(O)(Cc1cccnc1)P(=O)(O)O [Risedronic_acid] | – | – | 0.01 | Low (Low: HIA value < 0.7) | –
CCCN(CCC)CCc1cccc2c1CC(=O)N2 [Ropinirole] | – | – | 0.98 | High (High: HIA value ≥0.7) | –
C[C@@H]1O[C@@H](OC[C@H]2O[C@@H](Oc3c(-c4ccc(O)c(O)c4)oc4cc(O)cc(O)c4c3=O)[C@H](O)[C@@H](O)[C@@H]2O)[C@H](O)[C@H](O)[C@H]1O [Rutin] | 57 ± 5.8 | – | – | – | –
Cn1nnc2c(C(N)=O)ncn2c1=O [Temozolomide] | – | – | 1 | High (High: HIA value ≥0.7) | –
NC(=O)N1C(=O)/C(=C(\O)c2cccs2)c2cc(Cl)ccc21 [Tenidap] | – | – | – | High (High: HIA value ≥0.7) | 0.89
CCO[C@@H](Cc1ccc(OCCc2ccc(OS(C)(=O)=O)cc2)cc1)C(=O)O [Tesaglitazar] | – | – | 1 | High (High: HIA value ≥0.7) | –
CSc1ccc2ncn(/C=C/C(=O)O)c(=O)c2c1 [Tiacrilast] | – | – | 0.99 | High (High: HIA value ≥0.7) | –
COc1cc(C)c([S+](C)[O-])cc1OC (stereo not shown) [Tolmesoxide] | – | – | 0.98 | High (High: HIA value ≥0.7) | –
COc1ccc2c(C(=S)N(C)CC(=O)O)cccc2c1C(F)(F)F [Tolrestat] | – | – | 0.66 | Low (Low: HIA value < 0.7) | –
O=c1n(CCCN2CCN(c3cccc(Cl)c3)CC2)nc2ccccn12 [Trazodone] | – | – | 1 | High (High: HIA value ≥0.7) | –
CC1(C)O[C@@H]2C[C@H]3[C@@H]4CCC5=CC(=O)C=C[C@]5(C)[C@@]4(F)[C@@H](O)C[C@]3(C)[C@]2(C(=O)CO)O1 [Triamcinolone_acetonide] | – | – | 0.9 | High (High: HIA value ≥0.7) | –
CN1[C@@H]2CC[C@H]1C[C@@H](OC(=O)c1c[nH]c3ccccc13)C2 [Tropisetron] | – | – | 0.95 | High (High: HIA value ≥0.7) | –
CC(C(=O)O)c1ccc(C2CCCC(=NO)C2)cc1 (stereo not shown) [Ximoprofen] | – | – | 0.98 | High (High: HIA value ≥0.7) | –
